Measured values: paper PMC5041959, “A high-content EMT screen identifies multiple receptor tyrosine kinase inhibitors with activity on TGFβ receptor” (Oncotarget, 2016)
Where two headings read alike, the source gives them in different places.

How the values were obtained:
[1] = target: PDGFRB (Homo sapiens, UniProt P09619); test: Biochemical kinase profiling (33PanQinase radiometric assay)
[2] = test system: ROCK; test: ROCK cellular assay (MLC Thr18/Ser19 phosphorylation ELISA in A7r5 cells); type: cell-based, rat; conditions: 90 min compound
[3] = target: FGFR1 (Homo sapiens, UniProt P11362); test: Biochemical kinase profiling (33PanQinase radiometric assay)
[4] = target: FGFR4 (Homo sapiens, UniProt P22455); test: as above
FGFR4, sequence (P22455 22-802): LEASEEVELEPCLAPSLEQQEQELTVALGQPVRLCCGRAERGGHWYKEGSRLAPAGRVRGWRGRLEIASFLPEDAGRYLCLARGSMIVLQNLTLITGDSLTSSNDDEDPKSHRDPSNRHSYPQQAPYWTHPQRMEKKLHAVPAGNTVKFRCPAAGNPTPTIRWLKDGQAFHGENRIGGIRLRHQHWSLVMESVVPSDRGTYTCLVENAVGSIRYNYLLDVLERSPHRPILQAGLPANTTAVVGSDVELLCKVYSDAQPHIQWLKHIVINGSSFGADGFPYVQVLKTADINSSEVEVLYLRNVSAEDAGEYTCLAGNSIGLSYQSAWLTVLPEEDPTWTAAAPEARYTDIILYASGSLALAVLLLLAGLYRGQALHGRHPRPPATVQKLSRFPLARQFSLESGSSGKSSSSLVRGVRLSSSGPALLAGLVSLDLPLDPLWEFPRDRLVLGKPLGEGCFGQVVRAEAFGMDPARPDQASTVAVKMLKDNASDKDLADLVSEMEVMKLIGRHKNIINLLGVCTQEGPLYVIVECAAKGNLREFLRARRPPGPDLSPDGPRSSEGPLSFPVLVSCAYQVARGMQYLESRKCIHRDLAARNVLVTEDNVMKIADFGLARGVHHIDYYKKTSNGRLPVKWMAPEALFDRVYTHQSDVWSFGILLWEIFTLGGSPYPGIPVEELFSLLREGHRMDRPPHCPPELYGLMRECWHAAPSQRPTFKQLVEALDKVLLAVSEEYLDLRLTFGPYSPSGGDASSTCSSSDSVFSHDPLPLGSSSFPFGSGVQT

[5] = target: ROCK2 (Homo sapiens, UniProt O75116); test: as above
[6] = target: FGFR2 (Homo sapiens, UniProt P21802); test: as above
FGFR2, sequence (P21802 22-821): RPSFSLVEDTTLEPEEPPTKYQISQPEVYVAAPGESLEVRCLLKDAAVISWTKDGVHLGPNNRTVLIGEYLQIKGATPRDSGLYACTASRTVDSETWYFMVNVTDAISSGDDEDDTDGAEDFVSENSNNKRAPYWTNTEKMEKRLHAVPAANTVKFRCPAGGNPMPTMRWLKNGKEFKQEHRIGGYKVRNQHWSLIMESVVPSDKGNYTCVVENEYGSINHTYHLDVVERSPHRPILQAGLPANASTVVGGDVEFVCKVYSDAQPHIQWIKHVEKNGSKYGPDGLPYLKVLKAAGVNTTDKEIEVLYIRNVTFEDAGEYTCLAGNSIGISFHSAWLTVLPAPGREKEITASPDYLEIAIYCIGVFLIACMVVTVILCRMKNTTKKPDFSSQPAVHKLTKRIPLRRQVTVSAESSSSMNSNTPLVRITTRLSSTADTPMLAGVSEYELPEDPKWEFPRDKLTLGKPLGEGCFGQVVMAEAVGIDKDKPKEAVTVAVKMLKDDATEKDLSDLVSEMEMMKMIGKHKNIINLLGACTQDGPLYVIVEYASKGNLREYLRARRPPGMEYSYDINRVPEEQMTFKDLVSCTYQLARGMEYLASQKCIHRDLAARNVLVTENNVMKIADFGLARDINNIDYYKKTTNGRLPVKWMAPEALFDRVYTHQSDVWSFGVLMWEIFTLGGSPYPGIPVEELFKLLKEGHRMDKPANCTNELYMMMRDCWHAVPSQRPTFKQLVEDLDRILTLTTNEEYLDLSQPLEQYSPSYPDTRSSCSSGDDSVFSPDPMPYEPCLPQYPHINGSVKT

[7] = target: PDGFRA (Homo sapiens, UniProt P16234); test: as above
PDGFRA, sequence (P16234 24-1089): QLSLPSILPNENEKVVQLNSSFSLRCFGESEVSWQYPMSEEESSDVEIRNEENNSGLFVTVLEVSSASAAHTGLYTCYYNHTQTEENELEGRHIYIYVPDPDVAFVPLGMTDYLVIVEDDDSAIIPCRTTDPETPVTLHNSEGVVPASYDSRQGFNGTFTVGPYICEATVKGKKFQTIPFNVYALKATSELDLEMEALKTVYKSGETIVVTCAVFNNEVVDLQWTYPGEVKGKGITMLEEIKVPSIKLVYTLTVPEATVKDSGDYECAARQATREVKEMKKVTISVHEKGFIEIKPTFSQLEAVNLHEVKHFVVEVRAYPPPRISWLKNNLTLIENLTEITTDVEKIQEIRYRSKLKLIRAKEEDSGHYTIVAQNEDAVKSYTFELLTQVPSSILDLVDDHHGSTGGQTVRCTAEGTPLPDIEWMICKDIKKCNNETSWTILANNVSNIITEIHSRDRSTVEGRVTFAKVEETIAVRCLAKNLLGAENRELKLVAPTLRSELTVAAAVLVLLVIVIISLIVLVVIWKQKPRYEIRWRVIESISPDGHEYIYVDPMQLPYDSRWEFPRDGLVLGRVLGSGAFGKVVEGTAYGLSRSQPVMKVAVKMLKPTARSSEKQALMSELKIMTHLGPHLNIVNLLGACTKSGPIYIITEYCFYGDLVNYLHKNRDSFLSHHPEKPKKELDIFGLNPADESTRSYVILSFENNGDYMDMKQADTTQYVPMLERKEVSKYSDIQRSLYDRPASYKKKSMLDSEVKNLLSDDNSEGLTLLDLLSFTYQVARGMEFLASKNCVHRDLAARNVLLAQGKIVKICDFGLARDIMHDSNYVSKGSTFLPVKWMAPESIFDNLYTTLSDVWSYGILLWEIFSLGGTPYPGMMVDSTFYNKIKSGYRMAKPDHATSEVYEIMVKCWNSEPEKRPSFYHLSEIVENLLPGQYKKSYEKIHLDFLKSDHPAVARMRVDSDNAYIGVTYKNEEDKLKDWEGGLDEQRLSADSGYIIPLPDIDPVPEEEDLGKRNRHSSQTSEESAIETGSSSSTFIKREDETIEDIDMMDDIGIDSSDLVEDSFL

[8] = target: T1, TGFBR1 (Homo sapiens, UniProt P36897); test: as above
T1 sequence (P36897 34-503): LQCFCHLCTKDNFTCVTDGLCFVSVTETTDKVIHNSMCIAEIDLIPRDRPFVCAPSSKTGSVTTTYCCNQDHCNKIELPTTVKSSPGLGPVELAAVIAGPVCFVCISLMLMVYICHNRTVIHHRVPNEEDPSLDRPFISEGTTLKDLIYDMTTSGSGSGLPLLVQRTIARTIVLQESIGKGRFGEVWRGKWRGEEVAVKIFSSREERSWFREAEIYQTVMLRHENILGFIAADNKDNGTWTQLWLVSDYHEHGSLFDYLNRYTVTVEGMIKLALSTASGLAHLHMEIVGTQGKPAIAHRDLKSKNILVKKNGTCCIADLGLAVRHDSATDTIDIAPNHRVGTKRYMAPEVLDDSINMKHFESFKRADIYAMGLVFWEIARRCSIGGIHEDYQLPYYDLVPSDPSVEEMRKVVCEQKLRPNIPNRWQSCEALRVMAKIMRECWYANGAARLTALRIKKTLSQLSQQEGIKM

[9] = target: EGFR (Homo sapiens, UniProt P00533); test: as above
EGFR, sequence (P00533 25-1210): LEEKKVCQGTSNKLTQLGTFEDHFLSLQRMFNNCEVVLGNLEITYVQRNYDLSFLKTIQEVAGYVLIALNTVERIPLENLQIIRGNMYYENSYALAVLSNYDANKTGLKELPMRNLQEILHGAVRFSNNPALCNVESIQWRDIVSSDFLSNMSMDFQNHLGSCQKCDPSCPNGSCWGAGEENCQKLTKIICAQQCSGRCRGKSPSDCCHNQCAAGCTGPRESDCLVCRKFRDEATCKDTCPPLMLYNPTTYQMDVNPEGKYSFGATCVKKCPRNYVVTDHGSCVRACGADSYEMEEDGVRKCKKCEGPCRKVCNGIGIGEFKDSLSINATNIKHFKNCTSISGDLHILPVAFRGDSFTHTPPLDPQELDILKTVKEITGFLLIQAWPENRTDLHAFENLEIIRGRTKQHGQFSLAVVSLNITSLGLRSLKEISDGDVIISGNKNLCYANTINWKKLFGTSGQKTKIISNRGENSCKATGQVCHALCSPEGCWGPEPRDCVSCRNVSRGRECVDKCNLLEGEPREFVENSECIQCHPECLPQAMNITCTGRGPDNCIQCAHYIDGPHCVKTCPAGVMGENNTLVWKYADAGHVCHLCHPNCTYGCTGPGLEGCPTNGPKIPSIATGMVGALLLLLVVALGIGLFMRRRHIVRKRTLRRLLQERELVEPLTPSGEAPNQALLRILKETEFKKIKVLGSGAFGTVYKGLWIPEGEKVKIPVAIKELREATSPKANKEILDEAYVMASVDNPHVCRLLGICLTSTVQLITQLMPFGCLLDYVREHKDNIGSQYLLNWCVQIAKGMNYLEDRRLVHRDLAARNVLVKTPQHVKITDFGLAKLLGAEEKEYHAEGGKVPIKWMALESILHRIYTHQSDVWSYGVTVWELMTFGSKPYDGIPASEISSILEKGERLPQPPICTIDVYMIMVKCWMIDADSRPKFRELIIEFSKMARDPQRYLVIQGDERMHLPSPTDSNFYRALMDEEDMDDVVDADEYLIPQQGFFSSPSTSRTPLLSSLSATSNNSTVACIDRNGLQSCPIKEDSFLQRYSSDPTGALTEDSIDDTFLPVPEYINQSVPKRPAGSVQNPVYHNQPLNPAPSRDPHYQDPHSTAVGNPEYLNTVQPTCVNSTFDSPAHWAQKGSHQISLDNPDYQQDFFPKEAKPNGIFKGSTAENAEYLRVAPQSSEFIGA

[10] = target: FGFR3 (Homo sapiens, UniProt P22607); test: as above
[11] = target: SRC (Homo sapiens, UniProt P12931); test: as above
SRC, sequence (P12931 whole entry): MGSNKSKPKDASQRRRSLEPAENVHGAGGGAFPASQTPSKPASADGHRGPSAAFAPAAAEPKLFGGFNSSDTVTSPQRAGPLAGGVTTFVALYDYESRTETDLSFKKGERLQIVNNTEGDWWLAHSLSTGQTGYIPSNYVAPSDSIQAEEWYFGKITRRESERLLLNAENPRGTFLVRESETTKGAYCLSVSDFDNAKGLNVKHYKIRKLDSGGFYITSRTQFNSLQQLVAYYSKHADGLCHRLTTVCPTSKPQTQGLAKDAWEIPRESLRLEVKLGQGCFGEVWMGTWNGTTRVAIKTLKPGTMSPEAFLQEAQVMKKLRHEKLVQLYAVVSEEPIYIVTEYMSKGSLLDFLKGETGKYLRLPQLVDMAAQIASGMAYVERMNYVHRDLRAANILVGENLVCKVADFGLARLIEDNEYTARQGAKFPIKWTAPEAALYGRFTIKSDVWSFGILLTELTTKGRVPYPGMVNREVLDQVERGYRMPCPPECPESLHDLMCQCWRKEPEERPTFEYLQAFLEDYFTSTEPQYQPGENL

[12] = target: ROCK1 (Homo sapiens, UniProt Q13464); test: as above
[13] = target: TGFBR2 (Homo sapiens, UniProt P37173); test: as above
TGFBR2, sequence (P37173 23-567): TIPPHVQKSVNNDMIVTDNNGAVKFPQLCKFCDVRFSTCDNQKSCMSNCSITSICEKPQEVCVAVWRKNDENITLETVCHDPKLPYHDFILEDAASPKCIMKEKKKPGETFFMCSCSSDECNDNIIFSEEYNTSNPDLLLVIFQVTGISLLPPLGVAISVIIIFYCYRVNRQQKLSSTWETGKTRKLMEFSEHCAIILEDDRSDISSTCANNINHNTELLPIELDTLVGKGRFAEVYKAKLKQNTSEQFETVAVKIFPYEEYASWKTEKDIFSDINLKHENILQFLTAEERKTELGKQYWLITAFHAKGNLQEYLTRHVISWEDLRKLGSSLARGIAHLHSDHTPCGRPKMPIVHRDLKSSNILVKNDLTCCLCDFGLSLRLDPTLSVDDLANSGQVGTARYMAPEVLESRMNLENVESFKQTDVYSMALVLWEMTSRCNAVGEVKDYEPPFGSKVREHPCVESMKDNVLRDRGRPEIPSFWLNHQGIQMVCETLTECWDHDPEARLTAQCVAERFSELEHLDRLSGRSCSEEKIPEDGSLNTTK

[14] = test system: NMuMG cells; test: High-content microscopy EMT screen in TGFβ-treated NMuMG cells (FA, SF, FN, cell count); type: cell-based, murine; conditions: for Emax (maximal effect on cell count): compared to reference 10 μM SB-431542 = 100%; for Emax: read-out: Emax (maximal effect on cell count)
[15] = test system: SMAD3 phosphorylation (TGFBR activity); test: Quantification of SMAD3 phosphorylation in TGFβ-treated NMuMG cells (immunoblot, LI-COR); type: cell-based, murine; conditions: one day TGFβ plus inhibitor
Experimental: NMuMG cells plated the day before were treated for one day with TGFβ and DMSO or an inhibitor as described in the figure legends. Cells were washed with PBS and lyzed in RIPA buffer (150 mM NaCl, 2 mM MgCl, 2 mM CaCl2, 0.5% Na-deoxycholate, 10% glycerol, 1% NP-40, 0.1% SDS, 50 mM Tris pH8 supplementary with 1 mM DTT, 10 mM NaF, 1 mM sodium orthovanadate and protease inhibitor cocktail (Roche)). The proteins were resolved using SDS-PAGE and transferred to PVDF membrane. For quantitative analysis of SMAD phosphorylation, the membrane was probed with p-SMAD2/3 and GAPDH specific primary antibodies followed by fluorescent secondary antibodies (LI-COR Biosciences). The signal was captured and quantified with the Odyssey CLx Imaging system and ImageJ software form 3 independent experiments.

[16] = test system: Py2T cells; test: High-content microscopy EMT assay in TGFβ-treated Py2T breast cancer cells; type: cell-based, murine; conditions: for Emax (maximal effect on cell count): compared to reference 10 μM SB-431542 = 100%
[17] = test system: NMuMG cells; test: E-cadherin, ZO1 and vimentin immunofluorescence in TGFβ-treated NMuMG cells; type: cell-based, murine; conditions: four days TGFβ plus inhibitor
Experimental: NMuMG and Py2T cells were trypsinized, washed, seeded at 1000 cells/well, resuspended in 40 μl growth medium with a Multidrop-384 (Titertek) in 384-well microplates (Greiner, 781091), and grown overnight at 37°C, 5% CO2. The next day, 111 μl growth medium was added with the Multidrop-384 to 1 μl of the 2 mM library compounds of which 10 μl was transferred with a 384-well pipettor (VPrep, Agilent, US) to the cell assay plate and equilibrated for 10 min (final compound concentration 3 μM). For screenings at 300 nM or 30 nM, the compounds were diluted 1:10 or 1:100 in growth medium, respectively, before use. […]
Cells were imaged using the automated epifluorescence microscope ImageXpress Micro from Molecular Devices (Sunnyvale CA, USA) equipped with a plate-loading robot (CRS Catalyst, Thermo Scientific). […] The images were automatically analyzed by MetaXpress and segmented into sub-cellular structures based on morphological features such as object size and fluorescence distribution. Fluorescence distribution was a measure of the threshold intensity above local background and was adjusted for all parameters (nuclei, FA, SF and FN) by means of the respective positive and negative controls to compensate for inter-experimental variations between the different screening batches. […] Vimentin was quantified similar to SF and FN using the Angiogenesis module. […]

[18] = Mus musculus, 96 h, NMuMG, TGFβ1 2 ng/ml plus compound, 4 days, parameter decreased by 50%, read-out: FN IC50 (fibronectin patch formation)
[19] = Mus musculus, 96 h, NMuMG, TGFβ1 2 ng/ml plus compound, 4 days, parameter decreased by 50%, read-out: SF IC50 (stress fibers)
[20] = Mus musculus, NMuMG, cell count decreased by 50% compared to DMSO control, read-out: Tox IC50
[21] = Mus musculus, Py2T, cell count decreased by 50% compared to DMSO control, read-out: Tox IC50
[22] = Py2T, TGFβ plus compound, 4 days
[23] = Mus musculus, read-out: CCI IC50 (cell count increase)

| IC50 [1] [nM] | IC50 [3] [nM] | IC50 [4] [nM] | IC50 [6] [nM] | IC50 [7] [nM] | IC50 [9] [nM] | IC50 [10] [nM] | IC50 [11] [nM] | IC50 [14, 18] [nM] | IC50 [14, 19] [nM] | IC50 [14, 23] [nM] | Compound | IC50 [14, 20] [nM] | Emax (maximal effect on cell count) ([14]; NMuMG) | SMAD3 phosphorylation (p-SMAD3/GAPDH) [15] | IC50 [16, 21] [nM] | Emax (maximal effect on cell count) ([16]; Py2T) | Emax ([14]; Mus musculus) [%] | other results |
| --- | --- | --- | --- | --- | --- | --- | --- | --- | --- | --- | --- | --- | --- | --- | --- | --- | --- | --- |
| 1.9 | 5630 | > 10000 | 1010 | 618 | 2120 | 9090 | 1070 | 2050 | 2560 | – | COCCOc1ccc2c(c1)ncn2-c1ccc2cccc(N3CCC(N)CC3)c2n1 [CP673451] | 3590 | n.m. | – | – | – | – | IC50 ([2]; Rattus norvegicus, 1.5 h): 1500 nM; IC50 [5]: 1000 nM; IC50 [8]: > 10000 nM; IC50 [12]: 3370 nM; IC50 [13]: > 10000 nM; FA IC50 (focal adhesion formation) ([14]; NMuMG, TGFβ1 2 ng/ml plus compound, 4 days, parameter decreased by 50%): n.m. |
| – | – | – | – | – | – | – | – | 948 | 1170 | 291 | O=c1[nH]c(=O)n([C@H]2C[C@H](O)[C@@H](CO)O2)cc1I [Idoxuridine] | > 25000 | – | unchanged | 6350 | n.m. | 12.9 | FA IC50 (focal adhesions) [16, 22]: n.m.; FN IC50 (fibronectin patches) [16, 22]: n.m.; SF IC50 (stress fibers) [16, 22]: n.m. |
| > 10000 | > 10000 | > 10000 | > 10000 | > 10000 | > 10000 | > 10000 | > 10000 | 195 | 184 | 584 | NC(=O)c1ccc(-c2nc(-c3ccc4c(c3)OCO4)c(-c3ccccn3)[nH]2)cc1 [SB-431542] | > 25000 | – | blocked | 7460 | – | 100 | IC50 ([16]; Mus musculus, 96 h, Py2T, TGFβ plus compound, 4 days, read-out: FA IC50 (focal adhesions)): 156 nM; IC50 ([16]; Mus musculus, 96 h, Py2T, TGFβ plus compound, 4 days, read-out: FN IC50 (fibronectin patches)): 167 nM; IC50 ([16]; Mus musculus, 96 h, Py2T, TGFβ plus compound, 4 days, read-out: SF IC50 (stress fibers)): 175 nM; IC50 ([16]; Mus musculus, Py2T, TGFβ-induced EMT, read-out: IC50 for reduction of EMT markers): ~200 nM; IC50 [16, 23]: 140 nM; Emax ([16]; Mus musculus, read-out: Emax (maximal effect on cell count)): 100%; effect on TGFβ-induced loss of E-cadherin and ZO1 from junctions and vimentin filament formation [17]: completely blocked; IC50 ([14]; Mus musculus, 96 h, NMuMG, TGFβ1 2 ng/ml plus compound, 4 days, parameter decreased by 50%, read-out: FA IC50 (focal adhesion formation)): 243 nM; IC50 ([14]; Mus musculus, NMuMG, TGFβ treatment, proof of concept, read-out: IC50 in all three parameters (focal adhesion formation, stress fibers, fibronectin deposition)): ~200 nM; IC50 ([14]; Mus musculus, NMuMG, mean of IC50 values obtained for FA, SF, FN, read-out: EMT (FA/SF/FN) combined IC50): 388 nM |
| – | – | – | – | – | – | – | – | – | – | – | C[C@@H](N)[C@H]1CC[C@H](C(=O)Nc2ccncc2)CC1.Cl.Cl [Y-27632 2HCl] | – | 17.6% | unchanged | – | 43.8% | – | IC50 [2]: 430 nM; IC50 ([16]; Py2T, TGFβ plus compound, 4 days, read-out: FA IC50 (focal adhesions)): 2150 nM; IC50 ([16]; Py2T, TGFβ plus compound, 4 days, read-out: FN IC50 (fibronectin patches)): 4830 nM; IC50 ([16]; Py2T, TGFβ plus compound, 4 days, read-out: SF IC50 (stress fibers)): 1710 nM; IC50 ([16]; Py2T, cell count decreased by 50% compared to DMSO control, read-out: Tox IC50): > 25000 nM; IC50 ([16]; Py2T, compared to 10 μM SB-431542, read-out: CCI IC50 (cell count increase)): 770 nM; IC50 ([14]; NMuMG, TGFβ1 2 ng/ml plus compound, 4 days, parameter decreased by 50%, read-out: FA IC50 (focal adhesion formation)): 2650 nM; IC50 ([14]; NMuMG, TGFβ1 2 ng/ml plus compound, 4 days, parameter decreased by 50%, read-out: FN IC50 (fibronectin patch formation)): 1190 nM; IC50 ([14]; NMuMG, TGFβ1 2 ng/ml plus compound, 4 days, parameter decreased by 50%, read-out: SF IC50 (stress fibers)): 1310 nM; IC50 ([14]; NMuMG, cell count decreased by 50% compared to DMSO control, read-out: Tox IC50): > 25000 nM; IC50 ([14]; NMuMG, cell count increased by 50% compared to 100% with 10 μM SB-431542, read-out: CCI IC50 (cell count increase)): 1110 nM; IC50 ([14]; NMuMG, mean of IC50 values obtained for FA, SF, FN, read-out: EMT (FA/SF/FN) combined IC50): 1720 nM |
